Like-named read-outs stand apart in the source and are kept apart here.
Assays:
[1] = tested on: P. falciparum stages IV–V gametocytes; experiment: Gametocytocidal ATP-depletion assay (gametocyte ATP bioluminescence); assay type: cell-based, Plasmodium falciparum
Procedure: In parallel, the set of confirmed hits from the Pf FGAA screen was cross-compared in the gametocyte ATP-depletion assay, at 2 μM single concentration (Supplementary Data 1). This assay monitors ATP levels as surrogate of gametocyte viability.
‘Viability' of mature gametocytes was determined using the gametocyte ATP bioluminiscence assay. Briefly, stages IV–V gametocyte cultures were double-purified by differential sedimentation followed by magnetic isolation. Then, parasites (50 μl per well containing 12,500 gametocytes) were added to compound pre-dispensed 384-well plates (781091, Greiner Bio-One) and incubated at 37 °C for 48 h (3% O2, 5% CO2 and 92% N2). BacTiter-Glo kit (G8231, Promega) was used to determine the ATP levels of ‘live' parasites according to the manufacturer's instructions. After reagent addition (50 μl per well), luminescence of the plates was measured using a microplate reader (HTS counter Victor, Wallac).

[2] = tested on: P. falciparum asexual blood stages; conditions: read-out: Pf Asexual blood stages XC50, cited from earlier work
[3] = tested on: P. falciparum stage V female gametocytes; experiment: P. falciparum female gametocyte activation assay (Pf FGAA), 24 h or 48 h preincubation, Pfs25 expression readout; assay type: cell-based, Plasmodium falciparum NF54; conditions: mean, read-out: Gametocytes mean Pf FGAA IC50
Procedure: P. falciparum NF54 (originally isolated from an imported malaria case in the Netherlands in the 1980s; BEI Resources, cat. no. MRA-1000) asexual-stage culture was performed as described by Trager and Jensen[37]. Cultures synchronized at the ring stage were used to start gametocyte cultures (day 0) at 1% parasitaemia and 4% haematocrit in 200 ml final volume using culture bottles (Nalgene 3110-42, Thermo Scientific). Complete culture medium (RPMI 1640 supplemented with 25 mM HEPES, 50 μg ml^−1 hypoxanthine, 2 g l^−1 NaHCO3 and 10% pooled human male type A+ serum) was totally replaced daily for 14 days without fresh erythrocyte addition. Human serum was obtained from Interstate Blood Bank, A^+ serotype; no aspirin 2 h before drawing and no antimalarials 2 weeks before drawing. To ensure a stable temperature at 37 °C, which is crucial for gametocyte production and maturation, pre-warmed medium and a slide warmer (XH-2001, Premiere) were used. Under these conditions, parasitaemia reaches a peak of asexual stages on days 4–5, and the first gametocytes are differentiated in culture on day 6. Sexual-stage development was monitored microscopically by Giemsa-stained thin blood smears at day 7 (mainly asexual stages and stages I to III gametocytes) and day 14 (stages IV and V gametocytes).
Cultures showing mainly stage V gametocytes were purified by differential sedimentation as previously reported. The gametocyte concentration was adjusted to plate 8,000 gametocytes per well (100 μl per well) in 384-well poly-D-lysine coated plates (781946, Greiner Bio-One) containing the compounds to test. […] Female gametocyte activation was then triggered by temperature drop and addition of xanthurenic acid (D120804, Sigma) as previously described. To detect female gametes, monoclonal anti-Pfs25 antibody[38] 4B7 (BEI Resources (formerly MR4), cat. no. MRA-315) conjugated to the Cy3 fluorochrome (GE Healthcare) was added to ookinete medium (RPMI 1640 supplemented with 25 mM HEPES, 50 μg ml^−1 hypoxanthine, 2 g l^−1 NaHCO3, 100 μM xanthurenic acid and 20% human serum) at a final concentration of 0.5 μg ml^−1. Activated cultures were then kept at 26 °C for 24 h protected from light, and image acquisition was performed in the Opera High-Content Screening System (PerkinElmer). Using × 10 air objective, five images per well were taken using 532 nm excitation. Images were analysed with a Columbus image data storage and analysis system (PerkinElmer) based on a script specifically designed for this assay that considers size, roundness and intensity of fluorescence of the female activated gametocytes.
Compounds were dissolved in 100% DMSO and dispensed in the 384-well plates using an Echo-CRS liquid handler. Compounds were tested in 2–3 independent experiments. […] Based on that, Z′ factor was calculated for each plate and only those ones with values higher than 0.4 were considered acceptable for data analysis.
Assay performance statistics, such as signal to background ratio, Z′ and robust 3 s.d. activity cut-off were calculated using templates in ActivityBase XE (IDBS, Guilford, Surrey, UK). Hit population analysis and visualization were conducted using Spotfire DecisionSite (Spotfire, Inc., Somerville, MA, USA). The pIC50 (−log IC50) values were obtained using the ActivityBase XE nonlinear regression function in the full curve analysis bundle.

HepG2 cells = experiment: HepG2 cytotoxicity assay; assay type: cell-based
Procedure: After incubation, plates and CellTiter-Glo Reagent (G7571, Promega) were equilibrated at room temperature for 30 min before proceeding to develop the luminescent signal. Using a Multidrop combi dispenser, 25 μl per well of the signal developer were added to the plates and after 10 min at room temperature for stabilization, plates were read on the ViewLux system (Perkin Elmer).

[4] = TCAMS asexual blood stage data, ref 1 (Gamo, F. J. et al., Nature 465, 305-310, 2010)
[5] = P. falciparum female gametocytes
[6] = TCAMS data, ref 1 (Gamo et al., 2010)

Structure (SMILES) | Gametocytes mean ATP inhibition at 2µM [1] [%] | IC50 [2, 4] [nM] | IC50 [3, 5] [nM] | HepG2 cells mean TOX50 (HepG2 cells; HepG2 cells) [µM] | Gametocytes mean ATP inhibition at 2µM (%) [1] [%] | IC50 [2, 6] [nM] | also measured
CNC(=S)NN=C(C)c1ccccn1 [TCMDC-123475] | 81.04 | 270 | 14 | – | – | – | –
COc1ccc(C[C@H](N)C(=O)N[C@H]2[C@@H](O)[C@H](n3cnc4c(N(C)C)ncnc43)O[C@@H]2CO)cc1 [TCMDC-123493] | – | 170 | – | 1.80 | – | – | inhibition at 2 µM ([1]; Plasmodium falciparum, mean): 63.8%; Selectivity ratio (HepG2 cells; HepG2 TOX50 versus Pf FGAA IC50): 6.24; IC50 ([3]; Plasmodium falciparum, P. falciparum female gametocytes): 290 nM
Cc1ccc(-c2nc3cc(NC(=O)c4ccc([N+](=O)[O-])o4)ccc3o2)cc1Cl [TCMDC-123657] | 8.99 | 160 | 1350 | 1.72 | – | – | –
CCN(CC)CCCn1c(N)c(-c2nc3ccccc3[nH]2)c2nc(C#N)c(C#N)nc21 [TCMDC-123680] | 86.44 | 270 | 740 | 4.27 | – | – | –
Cc1ccnc(NC(c2ccc(Cl)c([N+](=O)[O-])c2)c2ccc3cccnc3c2O)c1 (stereo not drawn) [TCMDC-123691] | 95.66 | 930 | 1480 | 23.45 | – | – | –
NC(=Nc1nc(-c2ccccn2)cc2ccccc12)c1cccc(Cl)c1 [TCMDC-123745] | 49.04 | 310 | 50 | – | – | – | –
OC1CCN(c2cc(-c3ccccn3)nc(-c3ccccn3)n2)CC1 [TCMDC-123786] | 104.88 | 1050 | 1540 | 14.14 | – | – | –
COc1ccc(-c2csc3ncnc(Cl)c23)cc1 [TCMDC-123805] | -0.54 | 780 | 1460 | 0.55 | – | – | –
COc1cc2nc(N3CCN(c4nc(N)c5cc(OC)c(OC)cc5n4)CC3)nc(N)c2cc1OC [TCMDC-123865] | 90.91 | 150 | 580 | 52.49 | – | – | –
CCCC(=O)NC(c1ccc(C(C)C)cc1)c1ccc2cccnc2c1O (stereo not drawn) [TCMDC-123884] | 63.50 | 930 | 1540 | >100 | – | – | –
c1ccc(-c2csc(Nc3nc4cc5c(cc4s3)OCO5)n2)nc1 [TCMDC-124550] | 56.70 | 580 | 32.3 | – | – | – | –
Oc1c(C(Nc2nc3ccccc3s2)c2ccccc2)ccc2cccnc12 (stereo not drawn) [TCMDC-125565] | 91.61 | 650 | 3030 | – | – | – | –
S=C(NN=Cc1ccccn1)NC1CC2C=CC1C2 (stereo not drawn) [TCMDC-125752] | 74.38 | 720 | 15.3 | – | – | – | –
Cc1ccc(Nc2nc(-c3ccccn3)cs2)nc1 [TCMDC-125854] | 82.15 | 750 | 27.3 | – | – | – | –
Cc1c(Cl)cccc1S(=O)(=O)Nc1ccc(CCN2CCC(N)CC2)cc1.Cl [TCMDC-134083] | -1.32 | 1460 | – | 13.86 | – | – | –
Cc1cc(C(=O)Nc2nc(-c3ccccn3)nc3ccsc23)no1 [TCMDC-135243] | 53.53 | 810 | 350 | – | – | – | –
CCn1c(-c2nonc2N)nc2c(-c3cccc(NC(=O)NC45CC6CC(CC(C6)C4)C5)c3)ncc(OCCCN)c21.O=C(O)C(F)(F)F [TCMDC-136246] | – | – | – | – | -16.91 | – | HepG2 cells mean TOX50 (HepG2 cells): 6.10 µM; IC50 [3]: 1360 nM
Cl.c1ccc2c(Nc3ccc(OCCOCCOc4ccc(Nc5c6ccccc6nc6ccccc56)cc4)cc3)c3ccccc3nc2c1 [TCMDC-137355] | – | – | – | – | -18.54 | 280 | HepG2 cells mean TOX50 (HepG2 cells): 5.59 µM
CC(=NNC(=S)NC(C)(C)C)c1ccccn1 [TCMDC-137783] | – | – | – | – | 84.85 | 160 | IC50 [3]: 40 nM
CC(=NNC(S)=NCc1ccco1)c1ccccn1 [TCMDC-137906] | – | – | – | – | 77.01 | 250 | IC50 [3]: 20 nM
CCN(CC)CC(O)CNc1c2ccc([N+](=O)[O-])cc2nc2cc(OC)c(OC)cc12.Cl (stereo not drawn) [TCMDC-138079] | – | – | – | – | 44.60 | 270 | IC50 [3]: 3890 nM
COc1ccc(CNC(=O)c2cnc3c(O)cccc3c2Nc2cccc(NC(=O)c3ccc(Cl)c(Cl)c3)c2)cc1.O=C(O)C(F)(F)F [TCMDC-139607] | – | – | – | – | 90.02 | 600 | IC50 [3]: 1600 nM
CC(C)(C)c1ccc(C(=O)Nc2cccc(Nc3c(C(=O)NCc4cccc(C(F)(F)F)c4)cnc4c(O)cccc34)c2)cc1.O=C(O)C(F)(F)F [TCMDC-139610] | – | – | – | – | 83.54 | 1090 | IC50 [3]: 3630 nM
COc1ccc(CNC(=O)c2cnc3c(O)cccc3c2Nc2cccc(NC(=O)c3ccc(-c4ccccc4)cc3)c2)cc1.O=C(O)C(F)(F)F [TCMDC-139611] | – | – | – | – | 88.95 | 940 | IC50 [3]: 1820 nM
CC(Cc1ccc(CNC(=O)NCc2ccc(CC(C)NCCc3cccc(Cl)c3)cc2)cc1)NCCc1cccc(Cl)c1 (stereo not drawn) [TCMDC-139648] | – | – | – | – | 12.15 | 690 | HepG2 cells mean TOX50 (HepG2 cells): 3.94 µM
